According to US20250353860A1, “PIPERIDINE CARBOXAMIDE AZAINDANE DERIVATIVE, METHOD FOR PREPARING SAME, AND USE THEREOF” (BRISE PHARMACEUTICALS CO., LTD., priority 2022, published 2025):

biological target: T1, CGRP receptor (Homo sapiens, UniProt O60894+Q16602); assay: Inhibition of CGRP signaling pathway (cAMP, HTRF) in CHO-K1 cells expressing human CGRP receptors; type: cell-based; design: host or cells: CHO-K1; conditions: [α-CGRP]=10 ng/ml; increase in cAMP levels; read-out: IC50 of the inhibitory effect on the CGRP signaling pathway in CHO-K1 cells expressing human CGRP receptors
Procedure: (§1) The inhibitory effect of the CGRP signaling pathway in vitro is evaluated by measuring the cAMP level. The principle is that after CGRP binds to the CGRP receptor, the CGRP signaling pathway is activated, inducing an increase in the cAMP level. […] The specific experimental method is as follows:
CHO-K1 cells expressing human CGRP receptor (CGRPR/CHO-K1, PerkinElmer, ES-420-C) were cultured in F12K+10% FBS+400 μg/mL G418+10 μg/mL Blasticidin medium, and the cells were collected in the logarithmic growth phase. According to the instructions of the kit, the cells were resuspended in Stimulation Buffer comprising 0.5 mM IBMX, and 5 μL of the cell suspension was added to each well of a 96-well microplate (Cisbio, 66PL96025) at a cell density of 15,000 cells/well. 2.5 μL of gradient diluted compound solution was added to each well. After incubation at 37° C. for 30 minutes, 2.5 μL of 40 ng/ml human α-CGRP (Bachem, H-1470,0500) diluted in Stimulation Buffer comprising 0.5 mM IBMX was added to each well to a final concentration of 10 ng/ml. After incubation at 37° C. for 30 minutes, 5 μL of Anti-cAMP-Cryptate solution and 5 μL of cAMP-d2 solution were added to each well. After incubation at room temperature for 60 minutes, the HTRF signal was read using a microplate reader (Molecular Devices). Graphpad Prism was used to calculate the IC50 value of the compound's inhibitory effect on the increase in cAMP levels based on the compound concentration and HTRF signal.

Row | IC50 [nM] | SMILES
1 | 106 | CC1C(c2c(F)ccc(F)c2F)CC(NC(=O)c2cc3c(o2)CCC2(C3)C(=O)Nc3ncccc32)C(=O)N1CC(F)(F)F (stereo not shown) [Example 1, N-(6-methyl-2-oxo-1-(2,2,2-trifluoroethyl)-5-(2,3,6-trifluorophenyl)piperidin-3-yl)-2′-oxo-1′,2′,6,7-tetrahydro-4H-spiro[benzofuran-5,3′-pyrrolo[2,3-b]pyridine]-2-carboxamide]
2 | 199 | CC1C(c2c(F)ccc(F)c2F)CC(NC(=O)c2cc3c(o2)CC2(C3)C(=O)Nc3ncccc32)C(=O)N1CC(F)(F)F (stereo not shown) [Example 4, N-(6-methyl-2-oxo-1-(2,2,2-trifluoroethyl)-5-(2,3,6-trifluorophenyl)piperidin-3-yl)-2′-oxo-1′,2′,4,6-tetrahydrospiro[cyclopenta[b]furan-5,3′-pyrrolo[2,3-b]pyridine]-2-carboxamide]
3 | 250 | CC1C(c2c(F)ccc(F)c2F)CC(NC(=O)c2cc3c(s2)CCC2(C3)C(=O)Nc3ncccc32)C(=O)N1CC(F)(F)F (stereo not shown) [Example 2, N-(6-methyl-2-oxo-1-(2,2,2-trifluoroethyl)-5-(2,3,6-trifluorophenyl)piperidin-3-yl)-2′-oxo-1′,2′,6,7-tetrahydro-4H-spiro[benzo[b]thiophene-5,3′-pyrrolo[2,3-b]pyridine]-2-carboxamide]
4 | 64.7 | CC1C(c2c(F)ccc(F)c2F)CC(NC(=O)c2cc3c(s2)CC2(C3)C(=O)Nc3ncccc32)C(=O)N1CC(F)(F)F (stereo not shown) [Example 3, N-(6-methyl-2-oxo-1-(2,2,2-trifluoroethyl)-5-(2,3,6-trifluorophenyl)piperidin-3-yl)-2′-oxo-1′,2′,4,6-tetrahydrospiro[cyclopenta[b]thiophene-5,3′-pyrrolo[2,3-b]pyridine]-2-carboxamide]

biological target: T1, CGRP receptor; assay: Affinity for human CGRP receptor ([125I]h-CGRPα competition, CHO cell membranes); type: binding; design: host or cells: CHO-K1; conditions: 0.03 nM [125I]h-CGRPα; Cheng Prusoff; read-out: Ki of the affinity determination to human CGRP receptor
Procedure: The cell membrane homogenate of CHO cells expressing human CGRP receptor (comprising 16 μg of protein) was incubated with 0.03 nM [^125I]h-CGRPα and gradiently diluted test samples in buffer (50 mM Hepes-NaOH (pH 7.4), 10 mM MgCl2, 4 mM KCl, 10 mM […], 1 mM EDTA, 1 μM phosphorylation amide, 0.3% BSA and 0.04% bacitracin) at 22° C. for 90 minutes. A control group without the test sample was set up to obtain the highest binding signal of the experiment, and the non-specific binding of the experiment was determined by adding 1 μM non-isotope-labeled h-CGRPα to the control group. After the incubation, a glass fiber filter (GF/B, Packard) soaked with 0.3% PEI was placed in a 96-well cell collector (Unfilter, Packard), and the sample was quickly filtered under vacuum and rinsed several times with precooled buffer comprising 50 mM Tris-HCl and 150 mM NaCl. After the filter was dried, scintillation fluid (Microscint 0, Packard) was added and the radioactive signal value was measured using a scintillation counter (Topcount, Packard). The results are expressed as the percentage of inhibition of specific binding of the radioligand. Non-isotope labeled h-CGRPα was used as a standard sample as a control. The test samples and standard samples were tested at multiple concentrations to obtain a competition curve with [^125I]h-CGRPα, thereby calculating the IC50) 20 of each sample. The inhibition constant Ki was further calculated using the Cheng Prusoff equation: Ki=IC50/(1+L/KD), wherein L represents the concentration of [^125I]h-CGRPα in the system (0.03 nM), and KD represents the dissociation constant between [^125I]h-CGRPα and the human CORP receptor in the system (0.06 nM).

Row | Ki [nM] | SMILES
5 | 0.027 | C[C@@H]1[C@H](c2ccccc2)C[C@H](NC(=O)c2cnc3c(c2)C[C@@]2(C3)C(=O)Nc3ncccc32)C(=O)N1CC(F)(F)F [Ubrogepant, reference compound]

biological target: T1, CGRP receptor; assay: Inhibition of CGRP signaling pathway (cAMP, HTRF) in SK-N-MC cells; type: cell-based; design: SK-N-MC (ATCC, HTB-10) cells endogenously expressing CGRP receptor; host or cells: SK-N-MC; conditions: [α-CGRP]=10 ng/mL; increase in cAMP levels; read-out: IC50 of the inhibitory effect on the CGRP signaling pathway in SK-N-MC cells
Procedure: as §1
cAMP was determined using the CAMP-GS DYNAMIC KIT detection kit (Cisbio, 62AM4PEB).
SK-N-MC (ATCC, HTB-10) cells endogenously expressing CGRP receptor were cultured in EMEM+10% FBS medium and the cells were collected during the logarithmic growth phase. According to the instructions of the kit, the cells were resuspended in Stimulation Buffer comprising 0.5 mM IBMX, and 5 μL of the cell suspension was added to each well of a 96-well microplate (Cisbio, 66PL96025) at a cell density of 15,000 cells/well, 2.5 μL of gradient diluted compound solution was added to each well. After incubation at 37° C. for 30 minutes, 2.5 μL of 40 ng/ml human α-CGRP (Bachem, H-1470.0500) diluted in Stimulation Buffer comprising 0.5 mM IBMX was added to each well to a final concentration of 10 ng/ml. After incubation at 37° C. for 30 minutes, 5 μL of Anti-cAMP-Cryptate solution and 5 μL of cAMP-d2 solution were added to each well. After incubation at room temperature for 60 minutes, the HTRF signal was read using a microplate reader (Molecular Devices). Graphpad Prism was used to calculate the IC50 value of the compound's inhibitory effect on the increase in cAMP levels based on the compound concentration and HTRF signal.

Row | IC50 [nM] | SMILES
6 | 0.89 | C[C@@H]1[C@H](c2c(F)ccc(F)c2F)C[C@H](NC(=O)c2cc3c([nH]2)CCC2(C3)C(=O)Nc3ncccc32)C(=O)N1CC(F)(F)F (stereo partly drawn) [Example 13, N-((3S,5S,6R)-6-methyl-2-oxo-1-(2,2,2-trifluoroethyl)-5-(2,3,6-trifluorophenyl)piperidin-3-yl)-2′-oxo-1,1′,2′,4,6,7-hexahydrospiro[indole-5,3′-pyrrolo[2,3-b]pyridine]-2-carboxamide]
7 | > 100 | C[C@@H]1[C@H](c2c(F)ccc(F)c2F)C[C@H](NC(=O)c2nc3c(s2)CC2(CC3)C(=O)Nc3ncccc32)C(=O)N1CC(F)(F)F (stereo partly drawn) [Example 9, N-((3S,5S,6R)-6-methyl-2-oxo-1-(2,2,2-trifluoroethyl)-5-(2,3,6-trifluorophenyl)piperidin-3-yl)-2′-oxo-1′,2′,4,7-tetrahydro-5H-spiro[benzo[d]thiazole-6,3′-pyrrolo[2,3-b]pyridine]-2-carboxamide]

The next lines start with the molecule.

Row | SMILES | IC50 [nM]
8 | C[C@@H]1[C@H](c2c(F)ccc(F)c2F)C[C@H](NC(=O)c2cc3c([nH]2)CC2(C3)C(=O)Nc3ncccc32)C(=O)N1CC(F)(F)F (stereo partly drawn) [Example 10, N-((3S,5S,6R)-6-methyl-2-oxo-1-(2,2,2-trifluoroethyl)-5-(2,3,6-trifluorophenyl)piperidin-3-yl)-2′-oxo-1′,2′,4,6-tetrahydro-1H-spiro[cyclopenta[b]pyrrole-5,3′-pyrrolo[2,3-b]pyridine]-2-carboxamide] | 6.8
9 | C[C@@H]1[C@H](c2c(F)ccc(F)c2F)C[C@H](NC(=O)c2nc3c(s2)CC2(C3)C(=O)Nc3ncccc32)C(=O)N1CC(F)(F)F (stereo partly drawn) [Example 11, N-((3S,5S,6R)-6-methyl-2-oxo-1-(2,2,2-trifluoroethyl)-5-(2,3,6-trifluorophenyl)piperidin-3-yl)-2′-oxo-1′,2′,4,6-tetrahydrospiro[cyclopenta[d]thiazole-5,3′-pyrrolo[2,3-b]pyridine]-2-carboxamide] | 11
10 | C[C@@H]1[C@H](c2c(F)ccc(F)c2F)C[C@H](NC(=O)c2nc3c(o2)CCC2(C3)C(=O)Nc3ncccc32)C(=O)N1CC(F)(F)F (stereo partly drawn) [Example 12, N-((3S,5S,6R)-6-methyl-2-oxo-1-(2,2,2-trifluoroethyl)-5-(2,3,6-trifluorophenyl)piperidin-3-yl)-2′-oxo-1′,2′,6,7-tetrahydro-4H-spiro[benzo[d]oxazole-5, 3′-pyrrolo[2,3-b]pyridine]-2-carboxamide] | 53.6
